Experimental data reported in patent publication US20250270201A1, “SUBSTITUTED PYRIMIDINYL HYDRAZIDE COMPOUND AND PREPARATION METHOD AND USE THEREOF” (ARIGENX THERAPEUTICS CO., LTD., priority 2022, published 2025).

target: T1, AHR (Homo sapiens, UniProt P35869); experiment: Antagonistic effect for AHR in HepG2 cells stably transfected with CYP1A1-promoter firefly luciferase reporter; format: cell-based; conditions: AHR agonist-stimulated, 24 h compound treatment, average of two replicates
T1 construct: A human liver cancer cell line HepG2 endogenously expressing an AHR protein; host or cells: HepG2 stably transfected with a CYP1A1-promoter firefly luciferase reporter
T1 sequence (P35869 11-848): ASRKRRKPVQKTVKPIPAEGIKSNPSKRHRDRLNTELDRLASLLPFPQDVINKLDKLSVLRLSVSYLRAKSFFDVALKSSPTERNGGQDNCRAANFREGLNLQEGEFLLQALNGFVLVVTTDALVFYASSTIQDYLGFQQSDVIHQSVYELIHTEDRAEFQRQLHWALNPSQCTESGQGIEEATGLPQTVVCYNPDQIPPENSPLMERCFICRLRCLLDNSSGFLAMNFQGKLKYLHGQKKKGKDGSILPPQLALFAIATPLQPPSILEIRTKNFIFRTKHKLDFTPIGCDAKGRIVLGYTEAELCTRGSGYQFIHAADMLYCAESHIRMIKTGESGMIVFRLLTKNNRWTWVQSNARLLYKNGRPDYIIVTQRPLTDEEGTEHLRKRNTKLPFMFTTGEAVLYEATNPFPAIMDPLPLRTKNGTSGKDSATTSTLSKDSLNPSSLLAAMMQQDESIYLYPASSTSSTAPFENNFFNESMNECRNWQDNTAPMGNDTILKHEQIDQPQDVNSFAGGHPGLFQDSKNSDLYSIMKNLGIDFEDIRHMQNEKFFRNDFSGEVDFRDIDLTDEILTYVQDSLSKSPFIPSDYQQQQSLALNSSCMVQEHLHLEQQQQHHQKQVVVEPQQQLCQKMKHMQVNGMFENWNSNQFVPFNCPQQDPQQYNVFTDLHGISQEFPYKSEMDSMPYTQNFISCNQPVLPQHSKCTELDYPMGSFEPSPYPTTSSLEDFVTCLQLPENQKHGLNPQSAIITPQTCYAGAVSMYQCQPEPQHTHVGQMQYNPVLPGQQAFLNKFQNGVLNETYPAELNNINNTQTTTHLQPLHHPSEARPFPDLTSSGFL
Source text: A human liver cancer cell line HepG2 endogenously expressing an AHR protein (provided by the Stem Cell Bank of the Chinese Academy of Sciences) was adopted for testing. The expression of a CYP1A1 gene is regulated by an activity of AHR. After being activated, AHR can bind to a sequence called XRE on a CYP1A1 enhancer and initiate the expression of the CYP1A1 gene. To quantitatively determine an impact of a compound on the activity of AHR, a 1,200 bp (−1,143 to +57) regulatory sequence upstream of a promoter of the CYP1A1 gene was synthesized through gene synthesis and then inserted into a plasmid vector carrying firefly luciferase. The plasmid was then linearized through single enzyme cleavage and then transfected into HepG2 cells through lipofectin transfection (Lipofectamine 3000), and transfected HepG2 cells were screened by puromycin to obtain a stably-expressed cell line. When an antagonistic effect of a compound for AHR was tested, the expression of firefly luciferase was initiated by an AHR agonist (such as L-kynurenine, kynurenic acid, indirubin, TCDD, and 2-(1H-indol-3-ylcarbonyl)-4-thiazolecarboxylic acid methyl ester (ITE)), and cells were treated with the compound at different concentrations. Then, the inhibition on the expression of luciferase by the compound was measured.
Stably-transfected HepG2 cells were sub-cultivated in Minimum Eagle's medium (MEM) at 37° C. and 5% carbon dioxide. In the MEM, 1 mM sodium pyruvate, 2 mM GlutaMax, 1×non- essential amino acids, 10% Australian fetal bovine serum, 100 U/mL penicillin-streptomycin, and 5 μg/mL puromycin were supplemented. Before testing, HepG2 cells were inoculated into a 96-well plate at a density of 5-8×10^4 cells/well and cultivated for 24 h to 48 h to allow a cell confluency of about 90% before a drug treatment (puromycin was not added in a medium). Before the drug treatment, AHR agonist-containing 2×compound solutions at different concentrations were prepared with a same medium, and then a half of a cell culture medium in the 96-well plate was replaced with a 2×compound solution. An AHR agonist solution including only DMSO at a corresponding concentration was set as a negative control group, and CH223191 at a corresponding concentration (commercially available) was set as a positive control group. 2 separate replicate tests were set for each compound (including a positive control and a negative control). 24 h after the compound treatment, HepG2 cells were lysed by a Steady-Glo luciferase detection system of Promega, and a luciferase signal was measured by an InfiniteM1000 Pro microplate reader of Tecan.
In terms of data processing, for each replicate test of each compound, inhibition percentages of a compound at different concentrations on an activity of AHR were calculated sequentially with a signal of a well at a compound concentration of 0 as 100% and a cell signal of an untreated agonist as 0. Corresponding IC50 of a compound was calculated with an average value of data of two replicates according to the formula
tirougn non-nnear ning, where y represents an inhibition percentage and x represents a concentration of a corresponding compound.
IC50 for each compound was shown in Table 2, where A indicates IC50≤500 nM, B indicates 500 nM<IC50≤1.0 μM, C indicates 1 μM<IC50≤5.0 μM, and D indicates IC50>5.0 μM.

Compound | IC50 [nM]
CC(=O)N(NC(=O)c1cc(-c2ccc(C(F)(F)F)cc2)nc(-c2cnn(C)c2)n1)c1cnccn1 [Compound 34] | ≤ 500
Cc1ccc(-c2cc(C(=O)NN(C(C)C)C(C)CO)nc(-c3cccnc3)n2)s1 (centres unmarked) [Compound 62] | 500 to 1000
CCN(NC(=O)c1cc(-c2ccc(Cl)cc2)nc(-c2cccc(F)c2)n1)C(C)CO (centres unmarked) [Compound 54] | ≤ 500
C[C@@H]1COCCN1NC(=O)c1cc(-c2ccc(Cl)cc2)nc(-c2cnn(C)c2)n1 [Compound 40] | ≤ 500
CC(C)N(NC(=O)c1cc(-c2cccc(F)c2)nc(-c2cccnc2)n1)C(C)CO (centres unmarked) [Compound 58] | 500 to 1000
CC(C)N(NC(=O)c1cc(-c2ccc(F)cc2)nc(-c2cccnc2)n1)C(C)CO (centres unmarked) [Compound 59] | 500 to 1000
CC(C)N(NC(=O)c1cc(-c2ccc(C(F)(F)F)cc2)nc(-c2cccnc2)n1)C(=O)c1cccnc1 [Compound 68] | ≤ 500

Now from value to compound:

IC50 [nM] | Compound
≤ 500 | CC1COCC(CO)N1NC(=O)c1cc(-c2ccc(C(F)(F)F)cc2)nc(-c2cccnc2)n1 (centres unmarked) [Compound 12]
≤ 500 | Cn1cc(-c2nc(C(=O)NN3CCOC[C@H]3CO)cc(-c3ccc(C(F)(F)F)cc3)n2)cn1 [Compound 45]
≤ 500 | Cc1ccc(-c2cc(C(=O)NN(C(C)C)C(C)CO)nc(-c3cccnc3)n2)cc1 (centres unmarked) [Compound 49]
≤ 500 | CC1COCC(=O)N1NC(=O)c1cc(-c2ccc(OC(F)(F)F)cc2)nc(-c2cccnc2)n1 (centres unmarked) [Compound 11]
≤ 500 | CC(O)CN(NC(=O)c1cc(-c2ccc(Cl)cc2)nc(-c2cccnc2)n1)C(C)C (centres unmarked) [Compound 32]
≤ 500 | C[C@H]1COCCN1NC(=O)c1cc(-c2ccc(Cl)cc2)nc(-c2cccnc2)n1 [Compound 8]
500 to 1000 | O=C(NN1CCS(=O)(=O)CC1)c1cc(-c2ccc(C(F)(F)F)cc2)nc(-c2cccnc2)n1 [Compound 25]
≤ 500 | CC(C)N(NC(=O)c1cc(-c2ccc(Cl)cc2)nc(-c2cccnc2)n1)C(C)CO (centres unmarked) [Compound 2]
≤ 500 | Cn1cc(-c2nc(C(=O)NN3CCOC[C@@H]3CO)cc(-c3ccc(Cl)cc3)n2)cn1 [Compound 35]
500 to 1000 | C[C@@H]1COCCN1NC(=O)c1cc(-c2ccc(C(F)(F)F)cc2)nc(-c2cnn(C)c2)n1 [Compound 38]
